Two compounds from publication PMC7719162, “Positioning of an unprecedented spiro[5.5]undeca ring system into kinase inhibitor space” (Scientific Reports, 2020) can be followed below.

Structures are written as SMILES. Read-outs that look alike come from different tables or passages of the source.

As usually defined, the IC50 is the midpoint of a concentration-inhibition curve.

In assay [1] the test system is NO production in LPS-activated BV-2 cells. The assay is described as follows: NO production assay (Griess) in LPS-activated BV-2 cells. The class given is cell-based, murine. To be noted: read-out: NO Inhibition IC50. The protocol:
3-(4,5-dimethylthiazol-2-yl)-2,5-diphenyl-tetrazolium bromide (MTT) assay was performed to evaluate the cytotoxicity of the samples to the microglia. BV2 cells at the density of 4 × 10^4 cells /well were seeded in the 96 well plate and incubated for 24 h. Seeded cells were pre-treated with different concentration of the samples, and LPS (100 ng/ml) activation was performed after 30 min of compound treatment. Treated plate were incubated for 24 h in the incubator and nitric oxide assay and cell viability assay was performed. Treated cell’s conditioned medium was used to evaluate the NO assay, and the attached cells were used to evaluate the cell viability assay. 50 µL of conditioned medium (CM) from treated cells were transferred to a new 96 well plate for NO assay. This CM was mixed with the equal volume of the mixture of Gries reagent ((1% sulfanilamide and 0.1% N-1-napthylethylenediamine dihydrochloride). NaNO2 was used as standard and the colorimetric change were evidenced by measuring its OD at 540 nm in a microplate reader. The cells in the plate were incubated for 1 h with MTT solution making it the final concentration of […]. Blue stained cells were incubated with 200 ul of DMSO and the solution get changed to purple/formazan color and it was observed by measuring the absorbance at 570 nm in a microplate reader.NG-mono-methyl-L-arginine (L-NMMA), a well-known nitric oxide synthase (NOS) inhibitor, was used as a positive control.
A general note: Nitrite, measured by Griess reagent, commonly stands in for NO production.

Assay [2] addresses T1, ZIPK/DAPK3 (Homo sapiens, UniProt O43293).
T1 construct: purchased Reaction Biology Corp
The assay is described as follows: Kinase panel assay (radiolabelled). The assay is classed as biochemical. The conditions noted are these: ATP 10 μM.

Assay [3] deals with T2, PI3K (p110a(H1047R)/p85a) (Homo sapiens, UniProt P42336, H1047R).
T2 construct: purchased Reaction Biology Corp
As to the kind of experiment: Kinase panel assay (lipid kinase). The assay is classed as biochemical. The conditions noted are these: 30 μM compound, ATP 10 μM, duplicates Data 1/Data 2.

In assay [4] the target is T3, TLK1 (Homo sapiens, UniProt Q9UKI8).
T3 construct: purchased Reaction Biology Corp
T3 sequence (Q9UKI8 1-766): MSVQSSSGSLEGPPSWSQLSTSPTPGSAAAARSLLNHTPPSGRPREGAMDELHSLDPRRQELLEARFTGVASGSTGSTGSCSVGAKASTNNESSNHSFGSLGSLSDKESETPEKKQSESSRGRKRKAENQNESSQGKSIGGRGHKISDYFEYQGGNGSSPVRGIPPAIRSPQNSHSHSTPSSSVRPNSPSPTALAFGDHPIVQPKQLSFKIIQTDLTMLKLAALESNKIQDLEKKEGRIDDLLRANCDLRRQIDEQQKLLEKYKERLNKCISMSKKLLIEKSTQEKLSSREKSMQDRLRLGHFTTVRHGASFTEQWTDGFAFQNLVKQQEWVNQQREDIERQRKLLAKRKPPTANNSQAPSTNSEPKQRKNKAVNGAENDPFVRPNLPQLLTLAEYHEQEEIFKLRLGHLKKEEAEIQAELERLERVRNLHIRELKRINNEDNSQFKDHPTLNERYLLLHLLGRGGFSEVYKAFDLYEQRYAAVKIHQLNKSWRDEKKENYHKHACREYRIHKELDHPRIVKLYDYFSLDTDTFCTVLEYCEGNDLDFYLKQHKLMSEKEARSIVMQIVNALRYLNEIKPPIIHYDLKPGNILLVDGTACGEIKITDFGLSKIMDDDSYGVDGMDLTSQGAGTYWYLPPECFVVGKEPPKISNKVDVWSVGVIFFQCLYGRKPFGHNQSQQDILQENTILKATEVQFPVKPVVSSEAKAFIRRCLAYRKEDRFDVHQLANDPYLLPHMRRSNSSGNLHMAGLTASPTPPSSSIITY
The assay is described as follows: Kinase panel assay (radiolabelled). The class given is biochemical. The conditions noted are these: ATP 10 μM.

Assay [5] addresses T4, PKN2/PRK2 (Homo sapiens, UniProt Q16513).
T4 construct: purchased Reaction Biology Corp
As to the kind of experiment: Kinase panel assay (radiolabelled). The assay is classed as biochemical. The conditions noted are these: ATP 10 μM.

In assay [6] the target is T5, TRKA-TFG (TRK-T3) (Homo sapiens, UniProt P04629+Q92734).
T5 construct: TFG (fusion partner); purchased Reaction Biology Corp
As to the kind of experiment: Kinase panel assay (radiolabelled). The assay is classed as biochemical. The conditions noted are these: 30 μM compound, ATP 10 μM, duplicates Data 1/Data 2.

Assay [7] deals with COX-2. As to the kind of experiment: Western blot of COX-2 in LPS-induced BV-2 cells. The conditions noted are these: 0.01 to 1 uM. The assay is classed as cell-based, murine. The protocol: Western blot analysis was performed to see the protein expression of the iNOS and COX-2 in the BV2 cells. BV2 cells were seeded in a 6 well plate at the density of 6 × 10^5 cells/well overnight and cells were treated as mentioned earlier in the cell treatment section and this time treatment was performed for 6 h only. After 6 h, cells were harvested and lysed with lysis buffer containing (RIPA, protease inhibitor & phosphatase inhibitor), protein estimation was performed using biorad assay and the 30 µg of total protein was separated by 8% SDS-PAGE gel electrophoresis, transferred to nitrocellulose membranes, and incubated with primary antibodies against tubulin, iNOS, COX-2, and α-tubulin. […] membranes were incubated with horseradish peroxidase-conjugated secondary antibodies, and protein bands were visualized using ECL Western Blotting Detection Reagents (Amersham Pharmacia Biotech). Quantitative analysis of the protein bands was quantified using Image Master 2D Elite software (version 3.1, Amersham Pharmacia Biotech).
For orientation: A western blot detects proteins with antibodies after separation by electrophoresis.

Assay [8] concerns the target T6, PI3Kd (p110d/p85a) (Homo sapiens, UniProt O00329).
T6 construct: purchased Reaction Biology Corp
As to the kind of experiment: Kinase panel assay (lipid kinase). The assay is classed as biochemical. To be noted: 30 μM compound, ATP 10 μM, duplicates Data 1/Data 2.

The target of assay [9] is T7, EEF2K (Homo sapiens, UniProt O00418).
T7 construct: purchased Reaction Biology Corp
The assay is described as follows: Kinase panel assay (radiolabelled). The conditions noted are these: 30 μM compound, ATP 10 μM, duplicates Data 1/Data 2. The assay is classed as biochemical.

In assay [10] the test system is IL-6. As to the kind of experiment: Secreted IL-6 ELISA in LPS-induced BV-2 cells. The assay is classed as cell-based, murine. The protocol: To evaluate the secreted level of Prostaglandin E2 (PGE2), Tumor necrosis factor (TNF-α), Interleukin (IL-6), Interleukin (IL-1β), BV2 cells were seeded in a 6 well plate at the density of 1.5 × 10^6 cells/well in DMEM and incubated for 24 h. Seeded cells sere pretreated and, activated with LPS for next 24 h. conditioned medium from treated cells were collected and stored at -80 degree for longer period of time. The amount of TNF-α, IL-1β, PGE2,and IL-6 were evaluated using the competitive enzyme immunoassay kit. PGE2 kit were obtained from (Cayman Chemical, Ann Arbor, MI, USA) and TNF-α, IL-1β, and IL-6 were measured using ELISA development kits (R&D Systems, Minneapolis, MN, USA). All the protocol was exactly followed as written in the manual.
(In general: An ELISA detects its analyte on a solid surface through an enzyme-linked reagent.)

The target of assay [11] is T8, TRKC (Homo sapiens, UniProt Q16288).
T8 construct: purchased Reaction Biology Corp
As to the kind of experiment: Kinase panel assay (radiolabelled). The class given is biochemical. To be noted: ATP 10 μM.

Assay [12] concerns the target T9, DNA-PK (Homo sapiens, UniProt P78527).
T9 construct: purchased Reaction Biology Corp
The assay is described as follows: Kinase panel assay (radiolabelled). The assay is classed as biochemical. To be noted: 30 μM compound, ATP 10 μM, duplicates Data 1/Data 2.

Setting [13] is: 30 μM compound, duplicates Data 1/Data 2.
Setting [14] is: 30 μM compound, duplicates Data 1/Data 2, read-out: % Enzyme Activity (relative to DMSO controls).
Where [15] appears, read: 30 μM, average ± SD, read-out: % Residual Activity at 30 μM.
The mark [16] stands for this setting: read-out: % Enzyme Activity (relative to DMSO controls).

T4 sequence (Q16513 whole entry): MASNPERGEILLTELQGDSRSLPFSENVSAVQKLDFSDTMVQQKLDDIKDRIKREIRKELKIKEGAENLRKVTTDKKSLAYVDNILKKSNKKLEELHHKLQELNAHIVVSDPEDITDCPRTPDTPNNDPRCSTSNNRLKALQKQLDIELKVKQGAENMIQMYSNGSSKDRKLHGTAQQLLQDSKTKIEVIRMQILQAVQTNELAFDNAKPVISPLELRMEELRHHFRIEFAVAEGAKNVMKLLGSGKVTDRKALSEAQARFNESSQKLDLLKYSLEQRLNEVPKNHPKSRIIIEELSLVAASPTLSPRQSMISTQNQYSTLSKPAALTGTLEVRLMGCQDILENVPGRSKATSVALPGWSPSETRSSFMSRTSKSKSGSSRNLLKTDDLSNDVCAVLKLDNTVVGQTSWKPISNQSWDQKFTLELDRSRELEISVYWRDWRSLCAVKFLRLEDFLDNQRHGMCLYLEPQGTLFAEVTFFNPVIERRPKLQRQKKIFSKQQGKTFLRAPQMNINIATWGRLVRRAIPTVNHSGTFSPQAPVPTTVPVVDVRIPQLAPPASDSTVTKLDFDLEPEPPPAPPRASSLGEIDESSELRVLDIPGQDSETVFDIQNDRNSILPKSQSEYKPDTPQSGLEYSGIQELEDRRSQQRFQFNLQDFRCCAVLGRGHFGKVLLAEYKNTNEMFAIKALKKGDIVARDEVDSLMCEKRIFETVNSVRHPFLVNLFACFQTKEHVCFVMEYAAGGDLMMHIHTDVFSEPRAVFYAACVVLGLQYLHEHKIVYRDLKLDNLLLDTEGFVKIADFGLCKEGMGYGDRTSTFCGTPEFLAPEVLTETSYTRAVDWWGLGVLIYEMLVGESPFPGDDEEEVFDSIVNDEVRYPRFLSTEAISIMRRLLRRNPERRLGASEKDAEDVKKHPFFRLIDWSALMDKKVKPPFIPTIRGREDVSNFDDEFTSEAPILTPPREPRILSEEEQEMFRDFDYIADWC
T1 sequence (O43293 whole entry): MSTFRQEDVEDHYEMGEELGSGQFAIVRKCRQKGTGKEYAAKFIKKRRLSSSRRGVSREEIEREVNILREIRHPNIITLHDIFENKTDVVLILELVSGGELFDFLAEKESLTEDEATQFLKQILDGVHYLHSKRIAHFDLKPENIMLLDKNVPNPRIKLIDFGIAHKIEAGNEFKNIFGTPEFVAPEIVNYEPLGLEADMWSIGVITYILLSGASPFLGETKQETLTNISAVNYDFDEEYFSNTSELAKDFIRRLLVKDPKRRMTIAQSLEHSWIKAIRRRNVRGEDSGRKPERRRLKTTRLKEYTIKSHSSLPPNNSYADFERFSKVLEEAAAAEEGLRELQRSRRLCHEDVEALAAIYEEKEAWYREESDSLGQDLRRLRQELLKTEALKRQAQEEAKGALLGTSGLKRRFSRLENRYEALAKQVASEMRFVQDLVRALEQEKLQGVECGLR
T8 sequence (Q16288 32-839): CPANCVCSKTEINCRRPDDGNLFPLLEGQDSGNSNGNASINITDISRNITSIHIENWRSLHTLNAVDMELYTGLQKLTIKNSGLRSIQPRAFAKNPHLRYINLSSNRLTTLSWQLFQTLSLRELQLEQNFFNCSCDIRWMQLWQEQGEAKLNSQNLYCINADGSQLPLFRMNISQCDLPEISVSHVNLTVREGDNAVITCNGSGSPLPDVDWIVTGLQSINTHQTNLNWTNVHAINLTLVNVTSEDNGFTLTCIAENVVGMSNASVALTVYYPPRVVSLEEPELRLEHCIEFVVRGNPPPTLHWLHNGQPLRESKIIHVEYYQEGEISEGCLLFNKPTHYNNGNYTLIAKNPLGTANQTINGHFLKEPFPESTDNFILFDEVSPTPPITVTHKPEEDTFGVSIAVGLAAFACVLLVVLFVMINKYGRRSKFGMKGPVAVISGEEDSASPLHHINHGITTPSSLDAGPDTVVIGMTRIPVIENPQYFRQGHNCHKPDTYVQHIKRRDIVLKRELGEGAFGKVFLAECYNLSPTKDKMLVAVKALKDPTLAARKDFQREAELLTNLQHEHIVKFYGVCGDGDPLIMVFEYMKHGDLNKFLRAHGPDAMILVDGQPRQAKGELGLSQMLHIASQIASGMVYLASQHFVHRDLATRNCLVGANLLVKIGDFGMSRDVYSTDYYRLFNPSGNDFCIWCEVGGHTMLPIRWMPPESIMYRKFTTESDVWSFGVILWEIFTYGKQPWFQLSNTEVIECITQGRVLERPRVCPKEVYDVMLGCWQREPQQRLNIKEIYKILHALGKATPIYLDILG
T6 sequence (O00329 whole entry): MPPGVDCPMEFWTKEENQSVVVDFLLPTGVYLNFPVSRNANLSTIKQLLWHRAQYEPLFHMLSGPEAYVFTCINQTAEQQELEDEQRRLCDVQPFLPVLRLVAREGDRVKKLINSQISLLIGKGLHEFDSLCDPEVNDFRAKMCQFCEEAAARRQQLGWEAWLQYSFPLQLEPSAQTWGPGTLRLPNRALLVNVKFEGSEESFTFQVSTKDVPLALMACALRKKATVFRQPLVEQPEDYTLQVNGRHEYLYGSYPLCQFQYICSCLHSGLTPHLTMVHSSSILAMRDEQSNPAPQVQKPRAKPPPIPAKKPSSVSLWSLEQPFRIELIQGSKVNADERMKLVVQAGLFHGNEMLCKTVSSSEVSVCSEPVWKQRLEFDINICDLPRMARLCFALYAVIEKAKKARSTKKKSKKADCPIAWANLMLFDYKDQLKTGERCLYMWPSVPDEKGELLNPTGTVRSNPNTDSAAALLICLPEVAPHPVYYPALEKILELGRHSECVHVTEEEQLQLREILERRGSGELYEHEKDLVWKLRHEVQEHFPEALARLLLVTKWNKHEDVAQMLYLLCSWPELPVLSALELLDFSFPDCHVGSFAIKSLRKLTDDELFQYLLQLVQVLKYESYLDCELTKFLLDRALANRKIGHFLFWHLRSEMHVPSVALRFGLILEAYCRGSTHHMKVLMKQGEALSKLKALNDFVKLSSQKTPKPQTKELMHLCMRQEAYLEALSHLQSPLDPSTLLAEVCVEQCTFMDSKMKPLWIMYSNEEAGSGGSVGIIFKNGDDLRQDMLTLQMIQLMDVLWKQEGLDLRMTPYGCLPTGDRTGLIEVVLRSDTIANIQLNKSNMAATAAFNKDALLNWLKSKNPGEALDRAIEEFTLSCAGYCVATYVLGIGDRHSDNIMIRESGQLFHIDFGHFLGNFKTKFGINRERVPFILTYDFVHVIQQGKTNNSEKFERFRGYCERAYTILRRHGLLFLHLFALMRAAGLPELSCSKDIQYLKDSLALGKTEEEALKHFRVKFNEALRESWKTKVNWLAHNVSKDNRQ
T6 sequence (P27986 whole entry partner): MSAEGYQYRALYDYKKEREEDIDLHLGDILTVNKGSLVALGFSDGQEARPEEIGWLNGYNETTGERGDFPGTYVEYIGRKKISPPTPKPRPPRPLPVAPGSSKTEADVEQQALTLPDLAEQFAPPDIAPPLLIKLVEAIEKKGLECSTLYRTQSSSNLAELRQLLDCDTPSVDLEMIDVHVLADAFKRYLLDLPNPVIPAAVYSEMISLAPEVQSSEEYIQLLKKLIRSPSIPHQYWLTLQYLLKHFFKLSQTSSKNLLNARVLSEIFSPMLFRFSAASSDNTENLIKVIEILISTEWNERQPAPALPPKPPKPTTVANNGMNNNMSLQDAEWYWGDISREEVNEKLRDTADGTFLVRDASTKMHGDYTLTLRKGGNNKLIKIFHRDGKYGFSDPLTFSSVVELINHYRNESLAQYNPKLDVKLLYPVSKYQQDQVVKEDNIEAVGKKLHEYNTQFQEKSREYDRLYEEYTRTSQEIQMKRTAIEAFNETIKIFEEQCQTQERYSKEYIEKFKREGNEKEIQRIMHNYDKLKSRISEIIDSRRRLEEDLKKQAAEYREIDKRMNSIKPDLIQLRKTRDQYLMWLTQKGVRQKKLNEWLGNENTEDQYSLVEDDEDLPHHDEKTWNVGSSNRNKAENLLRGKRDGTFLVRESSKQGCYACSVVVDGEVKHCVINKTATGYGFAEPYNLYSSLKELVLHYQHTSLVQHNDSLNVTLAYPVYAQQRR
T7 sequence (O00418 whole entry): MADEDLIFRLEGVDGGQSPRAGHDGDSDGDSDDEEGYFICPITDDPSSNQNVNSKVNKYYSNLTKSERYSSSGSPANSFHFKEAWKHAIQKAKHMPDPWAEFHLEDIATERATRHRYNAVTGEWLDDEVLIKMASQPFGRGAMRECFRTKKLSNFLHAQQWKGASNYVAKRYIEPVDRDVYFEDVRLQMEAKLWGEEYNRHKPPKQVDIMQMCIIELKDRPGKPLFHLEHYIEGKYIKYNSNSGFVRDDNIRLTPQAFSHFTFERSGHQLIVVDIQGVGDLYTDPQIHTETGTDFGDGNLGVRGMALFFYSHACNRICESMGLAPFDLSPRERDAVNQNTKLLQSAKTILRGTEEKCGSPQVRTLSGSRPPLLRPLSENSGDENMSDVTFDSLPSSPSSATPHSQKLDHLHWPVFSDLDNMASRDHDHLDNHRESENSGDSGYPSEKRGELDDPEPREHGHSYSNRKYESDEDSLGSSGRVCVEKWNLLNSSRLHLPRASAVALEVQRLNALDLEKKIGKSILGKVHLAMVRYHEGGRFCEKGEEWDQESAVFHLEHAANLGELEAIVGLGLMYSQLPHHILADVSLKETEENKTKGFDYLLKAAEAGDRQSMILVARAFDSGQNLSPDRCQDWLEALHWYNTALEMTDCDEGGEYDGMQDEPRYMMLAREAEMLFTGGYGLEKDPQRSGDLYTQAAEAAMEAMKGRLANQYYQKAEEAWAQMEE

For the compound `O=C1C=CC2(C=C1)OCC(Cc1cc(C(F)(F)F)cc(C(F)(F)F)c1)C(=O)N2c1ccccc1` (racemic) [1c], the 50% inhibitory concentration (IC50) in assay [1] came to 70 ± 10 nM.
As to `O=C1C=CC2(C=C1)OCC(Cc1cn(-c3cccc(Cl)c3)nn1)C(=O)N2c1ccccc1` (centres unmarked) [2d, 3-((1-(3-Chlorophenyl)-1H-1,2,3-triazol-4-yl)methyl)-5-phenyl-1-oxa-5-azaspiro[5.5]undeca-7,10-diene-4,9-dione], the “% Enzyme Activity (relative to DMSO controls)” value in assay [2] (setting [13]) was found to be 86.95%; in assay [3], 131.08%; in [4] (setting [13]), 81.34%; in [5] (setting [13]), 97.21%; in [6], 102.82%; in [8], 108.46%. Besides, the “% Enzyme Activity (relative to DMSO controls)” value in assay [9] is on record as 101.96%; in assay [11] (setting [13]), 102.60%; in assay [12], 101.60%. Besides, the remaining activity at 30 µM in assay [2] (setting [14]) came to 88.8%; in assay [2] (setting [15]) it was 87.9 ± 1.3%; in [3] (setting [16]) it was 132%; in [4] (setting [14]) it was 82.1%; in assay [4] (setting [15]), 81.7 ± 0.5%; in assay [5] (setting [14]), 102%. For the same compound, the remaining activity at 30 µM in [5] (setting [15]) came to 99.5 ± 3.3%; in assay [6] (setting [16]) it was 109%; in assay [8] (setting [16]) it was 109%; in [9] (setting [16]), 103%; in assay [11] (setting [14]), 108%; in [11] (setting [15]) it was 105 ± 3.9%. In addition, the remaining activity at 30 µM in assay [12] (setting [16]) was found to be 103%. Further, in [1] (Mus musculus), the IC50 was 660 nM. Also, the “COX-2 expression level” value in assay [7] is “the regulation of COX-2 showed concentration dependency”. The “IL-6 level” value in assay [10] is given as “concentration-dependent manner”.
